In one assay the target is BTK (Homo sapiens (Human), UniProt Q06187). The experiment in a line: Z'-LYTE kinase inhibition assay against BTK. The class given is biochemical. The note with it: for inhibition at 0.1 µM: compound at 100 nM, ATP concentration at Km; for IC50: series of concentrations, GraphPad Prism 5. The procedure, abridged:
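Z′-LYTE FRET readout: 1.04-10.4 ng BTK with 2 μM Tyr 01 peptide, ATP at Km, in 50 mM HEPES pH 7.5, 10 mM MgCl2, 1 mM EGTA, 0.01% BRIJ-35, 1% DMSO. 60 min kinase reaction at room temperature, then 60 min development; IC50 from 10-point, 3-fold titrations.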

For another assay, the system named is OCI-Ly10 cells. The experiment in a line: OCI-Ly10 cell proliferation assay (Alamar Blue, 72 hours). In kind it is cell-based. The note with it: Homo sapiens. As for the experimental part: OCI-Ly10 cells were cultured in Iscove's DMEM supplemented with 20% fetal bovine serum and 1× penicillin/streptomycin/glutamine. The cells were maintained in T175 flasks under 5% CO2 in a 37 ° C. humidified incubator for 5 days prior to plating and assay.
Cells were pooled by centrifugation (200 ref, 8 minutes) and resuspended in fresh medium to a concentration of 2.00E+05 cells/ml. 200 µl of the cell suspension was added to each well (40,000 cells/well) of a black-walled 96 well plate to which 1 μl of compound (n=3 per concentration) in 100% DMSO (0.5% final concentration) was added per well. Vehicle and cell free wells were also included in the assay. The dosed cells were cultured under normal conditions for 72 hours.
Cell proliferation is measured using the dye Alamar Blue (resazurin). Resazurin is reduced to resorufin by cellular enzymes and is fluorescent (544 nm excitation, 612 nm emission). Fluorescence intensity is proportional to cell number. Resazurin was prepared in PBS to a stock concentration of 440 μM. 40 μl of the 440 μM resazurin stock solution was added 3 hours prior to the 72 hour termination of the assay. The plate was returned to normal culture conditions and fluorescence measurements were collected using a Cytation3 multimode plate reader (Biotek) at 72 hours.
The scale utilized in Table 8 is as follows: ++ less than 50 nM and + greater than 50 nM.
(Resazurin is reduced to fluorescent resorufin, in cell work by metabolically active cells.)

BTK, sequence (Q06187 whole entry): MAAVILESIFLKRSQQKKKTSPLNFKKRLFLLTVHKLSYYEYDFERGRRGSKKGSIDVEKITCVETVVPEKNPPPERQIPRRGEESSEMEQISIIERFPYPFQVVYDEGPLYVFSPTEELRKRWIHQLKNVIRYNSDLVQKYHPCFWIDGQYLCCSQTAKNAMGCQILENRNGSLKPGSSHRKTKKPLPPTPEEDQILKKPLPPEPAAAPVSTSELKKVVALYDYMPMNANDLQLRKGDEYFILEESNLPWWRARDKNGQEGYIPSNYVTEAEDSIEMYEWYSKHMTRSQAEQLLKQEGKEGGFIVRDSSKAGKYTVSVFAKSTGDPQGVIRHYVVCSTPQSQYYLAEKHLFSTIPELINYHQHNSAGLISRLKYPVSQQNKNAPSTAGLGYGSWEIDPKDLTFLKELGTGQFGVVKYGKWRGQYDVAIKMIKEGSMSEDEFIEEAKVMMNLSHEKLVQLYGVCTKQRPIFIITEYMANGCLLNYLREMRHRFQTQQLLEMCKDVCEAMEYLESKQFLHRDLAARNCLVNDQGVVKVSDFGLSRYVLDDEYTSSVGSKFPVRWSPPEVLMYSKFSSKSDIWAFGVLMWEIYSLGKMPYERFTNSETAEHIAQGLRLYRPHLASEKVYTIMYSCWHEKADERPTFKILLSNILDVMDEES

For orientation: inhibition means the relative decrease from the control value, in per cent. A high value points to a response far below the control. In general, IC50 refers to the concentration that gives 50% inhibition. Regarding `C=CC(=O)Nc1cccc(-c2cc(-c3cccnc3)cc3cnc(N)nc23)c1` [C035, N-(3-(2-amino-6-(pyridin-3-yl)quinazolin-8-yl)phenyl)acrylamide], on BTK, the inhibition at 0.1 µM was over 50% and the IC50 was under 0.1 µM. The concentration for half-maximal inhibition (IC50) with OCI-Ly10 cells was over 0.05 µM.

At BTK, `C=CC(=O)N1CCC(c2cc(-c3ccc(C(=O)Nc4cc(F)ccn4)cc3)n3cnccc23)C1` (centres unmarked) [C065, 4-(5-(1-acryloylpyrrolidin-3-yl)pyrrolo[1,2-c]pyrimidin-7-yl)-N-(4-fluoropyridin-2-yl)benzamide] yielded an inhibition at 0.1 µM of over 50% and an IC50 of under 0.1 µM. The compound further had a concentration for half-maximal inhibition (IC50) in the assay on OCI-Ly10 cells of under 0.05 µM.

Regarding `C=CC(=O)Nc1cccc(-c2cc(-c3ccc(Oc4ccccn4)cc3)cc3cncnc23)c1` [C099, N-(3-(6-(4-(pyridin-2-yloxy)phenyl)quinazolin-8-yl)phenyl)acrylamide], on BTK, the inhibition at 0.1 µM was over 50% and the IC50 was under 0.1 µM. In the assay with OCI-Ly10 cells, this compound gave an IC50 of under 0.05 µM.

For the compound `C=CC(=O)Nc1cccc(-c2cc(-c3ccc(C(=O)N4CCCC4)cc3)cc3cncnc23)c1` [C102, N-(3-(6-(4-(pyrrolidine-1-carbonyl)phenyl)quinazolin-8-yl)phenyl)acrylamide], at BTK, the inhibition at 0.1 µM was over 50% and the half-inhibitory concentration (IC50) was under 0.1 µM. Moreover, the IC50 with OCI-Ly10 cells was over 0.05 µM.

With `C=CC(=O)Nc1cccc(-c2cc(-c3ccc(Oc4ncccc4F)cc3F)cc3cncnc23)c1` [C105, N-(3-(6-(2-fluoro-4-((3-fluoropyridin-2-yl)oxy)phenyl)quinazolin-8-yl)phenyl)acrylamide], on BTK, the inhibition at 0.1 µM was over 50% and the half-inhibitory concentration (IC50) was under 0.1 µM. The compound also had an IC50 with OCI-Ly10 cells of under 0.05 µM.

With `C=CC(=O)Nc1cccc(-c2cc(-c3ccc(Oc4ccccn4)cc3F)cc3cncnc23)c1` [C112, N-(3-(6-(2-fluoro-4-(pyridin-2-yloxy)phenyl)quinazolin-8-yl)phenyl)acrylamide], the inhibition at 0.1 µM against BTK is over 50%. The IC50 at BTK is under 0.1 µM; with OCI-Ly10 cells, under 0.05 µM.

For the compound `C=CC(=O)Nc1cccc(-c2cc(-c3ccc(C(=O)Nc4cc(C5CC5)ccn4)cc3Cl)cc3cncnc23)c1` [C120, 4-(8-(3-acrylamidophenyl)quinazolin-6-yl)-3-chloro-N-(4-cyclopropylpyridin-2-yl)benzamide], the inhibition at 0.1 µM against BTK is over 50%. The 50% inhibitory concentration (IC50) is under 0.1 µM on BTK and under 0.05 µM in the assay on OCI-Ly10 cells.

As to `C=CC(=O)Nc1cccc(-c2cc(-c3ccc(Oc4ccccn4)cc3OC)cc3cncnc23)c1` [C121, N-(3-(6-(2-methoxy-4-(pyridin-2-yloxy)phenyl)quinazolin-8-yl)phenyl)acrylamide], on BTK, the inhibition at 0.1 µM was over 50%. In addition, the IC50 against BTK is under 0.1 µM; in the assay with OCI-Ly10 cells it was over 0.05 µM.

As to `C=CC(=O)Nc1cccc(-c2cc(-c3ccc(C(=O)Nc4cc(C5CC5)ccn4)cc3)cc3cncnc23)c1` [C131, 4-(8-(3-acrylamidophenyl)quinazolin-6-yl)-N-(4-cyclopropylpyridin-2-yl)benzamide], at BTK, the inhibition at 0.1 µM is over 50% and the IC50 was under 0.1 µM. Moreover, the IC50 with OCI-Ly10 cells is under 0.05 µM.

As for `C=CC(=O)Nc1cccc(-c2cc(-c3ccc(Oc4ccccn4)c(F)c3)cc3cncnc23)c1` [C135, N-(3-(6-(3-fluoro-4-(pyridin-2-yloxy)phenyl)quinazolin-8-yl)phenyl)acrylamide], the inhibition at 0.1 µM at BTK was over 50%. Also, the IC50 on BTK was under 0.1 µM; with OCI-Ly10 cells, under 0.05 µM.

On BTK, `C=CC(=O)Nc1cccc(-c2cc(-c3ccc(C(=O)Nc4cc(C5CC5)ccn4)c(F)c3)cc3cncnc23)c1` [C139, 4-(8-(3-acrylamidophenyl)quinazolin-6-yl)-N-(4-cyclopropylpyridin-2-yl)-2-fluorobenzamide] yielded an inhibition at 0.1 µM of over 50% and an IC50 of under 0.1 µM. In the assay on OCI-Ly10 cells, the IC50 was under 0.05 µM.

`C=CC(=O)Nc1cccc(-c2cc(-c3ccc(C(=O)Nc4ccccn4)c(Cl)c3)cc3cncnc23)c1` [C163, 4-(8-(3-acrylamidophenyl)quinazolin-6-yl)-2-chloro-N-(pyridin-2-yl)benzamide]: at BTK, the inhibition at 0.1 µM was over 50% and the IC50 was under 0.1 µM. In the assay with OCI-Ly10 cells, this compound had an IC50 of over 0.05 µM.

Turning to `C=CC(=O)Nc1cccc(-c2cc(-c3ccc(Oc4cc(C5CC5)ccn4)cc3)cc3cncnc23)c1` [C183, N-(3-(6-(4-((4-cyclopropylpyridin-2-yl)oxy)phenyl)quinazolin-8-yl)phenyl)acrylamide], the inhibition at 0.1 µM against BTK was over 50%. The results for the concentration for half-maximal inhibition (IC50) at BTK and in the assay with OCI-Ly10 cells were under 0.1 µM and under 0.05 µM, respectively.

As to `C=CC(=O)Nc1cccc(-c2cc(-c3ccc(Oc4cc(C#N)ccn4)cc3)cc3cncnc23)c1` [C184, N-(3-(6-(4-((4-cyanopyridin-2-yl)oxy)phenyl)quinazolin-8-yl)phenyl)acrylamide], at BTK, the inhibition at 0.1 µM was over 50% and the IC50 is under 0.1 µM. The IC50 in the assay with OCI-Ly10 cells was under 0.05 µM.

For `C=CC(=O)N1CCC(c2nc(-c3ccc(C(=O)Nc4ccccn4)cc3)n3c(N)nccc23)C1` (centres unmarked) [C185, 4-(1-(1-acryloylpyrrolidin-3-yl)-5-amino-imidazo[1,5-c]pyrimidin-3-yl)-N-(pyridin-2-yl)benzamide], on BTK, the inhibition at 0.1 µM is over 50% and the concentration for half-maximal inhibition (IC50) was under 0.1 µM. The same compound showed an IC50 with OCI-Ly10 cells of under 0.05 µM.

Turning to `C=CC(=O)N1CCC(c2nc(-c3ccc(Oc4ccccn4)cc3)n3c(N)nccc23)C1` (centres unmarked) [C186, 1-(3-(5-amino-3-(4-(pyridin-2-yloxy)phenyl)imidazo[1,5-c]pyrimidin-1-yl)pyrrolidin-1-yl)prop-2-en-1-one], at BTK, the inhibition at 0.1 µM is over 50% and the IC50 was under 0.1 µM. Also, the IC50 in the assay on OCI-Ly10 cells was under 0.05 µM.

`C=CC(=O)N1CCC(c2nc(-c3ccc(Oc4cc(C(F)(F)F)ccn4)cc3)n3c(N)nccc23)C1` (centres unmarked) [C196, 1-(3-(5-amino-3-(4-((4-(trifluoromethyl)pyridin-2-yl)oxy)phenyl)imidazo[1,5-c]pyrimidin-1-yl)pyrrolidin-1-yl)prop-2-en-1-one]: on BTK, the inhibition at 0.1 µM is over 50%. Also, the figures for the half-maximal inhibitory concentration (IC50) at BTK and with OCI-Ly10 cells were under 0.1 µM and under 0.05 µM, respectively.

At BTK, `C=CC(=O)N1CCC(c2nc(-c3ccc(C(=O)Nc4ccccn4)cc3)n3c(N)ncnc23)C1` (centres unmarked) [C197, 4-(8-(1-acryloylpyrrolidin-3-yl)-4-amino-imidazo[1,5-a][1,3,5]triazin-6-yl)-N-(pyridin-2-yl)benzamide] displayed an inhibition at 0.1 µM of over 50% and an IC50 of under 0.1 µM. Further, in the assay on OCI-Ly10 cells, the IC50 is under 0.05 µM.

On BTK, `C=CC(=O)N1CCC(c2nc(-c3ccc(C(=O)Nc4cc(C5CC5)ccn4)cc3)n3c(N)ncnc23)C1` (centres unmarked) [C199, 4-(8-(1-acryloylpyrrolidin-3-yl)-4-amino-imidazo[1,5-a][1,3,5]triazin-6-yl)-N-(4-cyclopropylpyridin-2-yl)benzamide] showed an inhibition at 0.1 µM of over 50% and a 50% inhibitory concentration (IC50) of under 0.1 µM. The compound also had an IC50 in the assay on OCI-Ly10 cells of under 0.05 µM.

In the case of `CC#CC(=O)N1CCC(c2nc(-c3ccc(C(=O)Nc4ccccn4)cc3)n3c(N)nccc23)C1` (centres unmarked) [C204, 4-(5-amino-1-(1-(but-2-ynoyl)pyrrolidin-3-yl)imidazo[1,5-c]pyrimidin-3-yl)-N-(pyridin-2-yl)benzamide], the inhibition at 0.1 µM against BTK was over 50%. The IC50 against BTK was under 0.1 µM; with OCI-Ly10 cells, under 0.05 µM.

As to `C=CC(=O)N1CCC(c2nc(-c3ccc(Oc4cc(OC)ccn4)cc3)n3c(N)nccc23)C1` (centres unmarked) [C210, 1-(3-(5-amino-3-(4-((4-methoxypyridin-2-yl)oxy)phenyl)imidazo[1,5-c]pyrimidin-1-yl)pyrrolidin-1-yl)prop-2-en-1-one], at BTK, the inhibition at 0.1 µM is over 50% and the IC50 is under 0.1 µM. Further, in the assay with OCI-Ly10 cells, the half-inhibitory concentration (IC50) is under 0.05 µM.

For the compound `C=CC(=O)N1CCC(c2nc(-c3ccc(C(=O)Nc4ccccn4)c(F)c3)n3c(N)nccc23)C1` (centres unmarked) [C230, 4-(1-(1-acryloylpyrrolidin-3-yl)-5-amino-imidazo[1,5-c]pyrimidin-3-yl)-2-fluoro-N-(pyridin-2-yl)benzamide], the figures for the half-inhibitory concentration (IC50) against BTK and with OCI-Ly10 cells were under 0.1 µM and under 0.05 µM, respectively.

As to `C=CC(=O)N1CCCC(c2nc(-c3ccc(C(=O)Nc4ccccn4)cc3)n3c(N)nccc23)C1` (centres unmarked) [C235, 4-(1-(1-acryloylpiperidin-3-yl)-5-amino-imidazo[1,5-c]pyrimidin-3-yl)-N-(pyridin-2-yl)benzamide], the IC50 against BTK was under 0.1 µM; in the assay on OCI-Ly10 cells, under 0.05 µM.

In the case of `CC#CC(=O)N1CCCC(c2nc(-c3ccc(C(=O)Nc4ccccn4)cc3)n3c(N)nccc23)C1` (centres unmarked) [C236, 4-(5-amino-1-(1-(but-2-ynoyl)piperidin-3-yl)imidazo[1,5-c]pyrimidin-3-yl)-N-(pyridin-2-yl)benzamide], the IC50 was under 0.1 µM against BTK and under 0.05 µM in the assay on OCI-Ly10 cells.

For `C=CC(=O)N1CCC(c2nc(-c3ccc(C(=O)Nc4cc(C5CC5)ccn4)cc3)n3c(N)nccc23)C1` (centres unmarked) [C238, 4-(1-(1-acryloylpyrrolidin-3-yl)-5-amino-imidazo[1,5-c]pyrimidin-3-yl)-N-(4-cyclopropylpyridin-2-yl)benzamide], the results for the IC50 on BTK and in the assay with OCI-Ly10 cells were under 0.1 µM and under 0.05 µM, respectively.

Source of the values: patent US10544106B2, “Certain chemical entities, compositions, and methods” (NeuPharma, Inc., priority 2016, dated 2020).
